From US20240368214A1, “POSITIVE NMDA-MODULATING COMPOUNDS AND METHODS OF USE THEREOF” (SAGE THERAPEUTICS, INC., priority 2021, published 2024)
Read-outs that look alike come from different tables or passages of the source.

Target: T1, recombinant human GluN1/GluN2A receptor (Homo sapiens, UniProt Q05586+Q12879)
T1 construct: expressed in transfected cells; host or cells: HEK293, tetracycline-inducible expression
Assay: Whole-cell patch clamp of mammalian cells (Syncropatch 384i), NMDA modulation
Assay type: cell-based
Conditions: HEK293 cells, human GluN1/GluN2A, glutamate 1 μM / glycine 100 μM, -80 mV, peak amplitude increase; for EC50: read-out: EC50
How it was run: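 Modulation read as fold rise in peak current, (Icomp/Icontrol)−1, from 8 concentrations with ≥2 wells each, four-parameter fit. Compound pre-incubated 120 s then co-applied with 1 μM glutamate plus 100 μM glycine; tetracycline-inducible HEK293 GluN1/GluN2A cells clamped at −80 mV.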

T1 sequence (Q12879 23-1464, other chains not shown): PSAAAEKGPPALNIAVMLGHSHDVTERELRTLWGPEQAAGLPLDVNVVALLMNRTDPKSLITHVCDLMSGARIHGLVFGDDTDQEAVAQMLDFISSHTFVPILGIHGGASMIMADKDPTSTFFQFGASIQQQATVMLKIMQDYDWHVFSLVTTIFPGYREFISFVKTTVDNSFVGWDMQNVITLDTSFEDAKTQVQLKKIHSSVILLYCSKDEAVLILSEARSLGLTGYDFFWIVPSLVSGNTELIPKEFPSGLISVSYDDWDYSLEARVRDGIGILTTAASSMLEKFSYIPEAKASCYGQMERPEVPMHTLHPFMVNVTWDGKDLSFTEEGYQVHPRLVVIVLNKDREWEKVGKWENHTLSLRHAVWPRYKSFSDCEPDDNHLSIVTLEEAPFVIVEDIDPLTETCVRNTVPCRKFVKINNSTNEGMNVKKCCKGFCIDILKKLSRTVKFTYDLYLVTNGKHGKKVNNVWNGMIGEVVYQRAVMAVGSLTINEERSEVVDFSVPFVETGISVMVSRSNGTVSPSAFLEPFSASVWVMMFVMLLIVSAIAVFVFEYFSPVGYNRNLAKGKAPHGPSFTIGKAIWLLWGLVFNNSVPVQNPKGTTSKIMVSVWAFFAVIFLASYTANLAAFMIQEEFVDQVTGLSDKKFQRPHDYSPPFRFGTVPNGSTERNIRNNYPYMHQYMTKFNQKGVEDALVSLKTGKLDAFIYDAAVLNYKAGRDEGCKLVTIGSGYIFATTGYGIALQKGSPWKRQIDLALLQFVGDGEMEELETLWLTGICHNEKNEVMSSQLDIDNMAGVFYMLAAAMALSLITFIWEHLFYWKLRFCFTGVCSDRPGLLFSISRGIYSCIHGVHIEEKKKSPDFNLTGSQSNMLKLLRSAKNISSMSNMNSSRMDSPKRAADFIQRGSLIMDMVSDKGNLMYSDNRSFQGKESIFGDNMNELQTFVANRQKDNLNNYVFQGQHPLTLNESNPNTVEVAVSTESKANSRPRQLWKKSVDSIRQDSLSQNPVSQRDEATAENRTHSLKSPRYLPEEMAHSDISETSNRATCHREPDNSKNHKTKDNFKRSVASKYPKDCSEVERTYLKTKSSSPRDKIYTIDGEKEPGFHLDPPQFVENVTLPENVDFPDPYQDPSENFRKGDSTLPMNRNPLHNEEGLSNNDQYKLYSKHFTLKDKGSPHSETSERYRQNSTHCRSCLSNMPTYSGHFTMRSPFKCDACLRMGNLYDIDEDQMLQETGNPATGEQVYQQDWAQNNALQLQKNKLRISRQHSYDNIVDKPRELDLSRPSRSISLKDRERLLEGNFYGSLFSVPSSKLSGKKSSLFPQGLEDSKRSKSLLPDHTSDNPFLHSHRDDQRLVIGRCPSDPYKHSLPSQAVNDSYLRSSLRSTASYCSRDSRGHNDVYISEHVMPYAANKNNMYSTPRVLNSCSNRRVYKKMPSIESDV

Compound | Emax (Table B-2) | EC50 (Table B-2) | Emax (Table C-2) | EC50 (Table C-2)
CC[C@]1(O)CC[C@@]2(C)[C@@H](CC[C@H]3[C@@H]4[C@H](C)C[C@H]([C@H](C)CC[C@@](C)(O)C(F)(F)F)[C@@]4(C)CC[C@@H]32)C1 [Compound B-16, (3S,5S,8R,9S,10S,13R,14S,15R,17R)-3-ethyl-10,13,15-trimethyl-17-((2R,5R)-6,6,6-trifluoro-5-hydroxy-5-methylhexan-2-yl)hexadecahydro-1H-cyclopenta[a]phenanthren-3-ol] | 100 to 200% | 100 to 500 nM |  | 
CC[C@]1(O)CC[C@@]2(C)[C@@H](CC[C@H]3[C@@H]4[C@H](C5CC5)C[C@H]([C@H](C)CCCC(C)(C)O)[C@@]4(C)CC[C@@H]32)C1 [Compound B-17, (3S,5S,8R,9S,10S,13R,14S,15S,17R)-15-cyclopropyl-3-ethyl-17-((R)-6-hydroxy-6-methylheptan-2-yl)-10,13-dimethylhexadecahydro-1H-cyclopenta[a]phenanthren-3-ol] | 100 to 200% | 100 to 500 nM |  | 
CC[C@]1(O)CC[C@@]2(C)[C@@H](CC[C@H]3[C@@H]4[C@H](C)C[C@H]([C@H](C)CCCC(C)(C)O)[C@@]4(C)CC[C@@H]32)C1 [Compound B-18, (3S,5S,8R,9S,10S,13R,14S,15R,17R)-3-ethyl-17-((R)-6-hydroxy-6-methylheptan-2-yl)-10,13,15-trimethylhexadecahydro-1H-cyclopenta[a]phenanthren-3-ol] | 100 to 200% | 1 to 100 nM |  | 
CC[C@]1(O)CC[C@@]2(C)[C@@H](CC[C@H]3[C@@H]4[C@@H](C5CC5)C[C@H]([C@H](C)CCCC(C)(C)O)[C@@]4(C)CC[C@@H]32)C1 [Compound B-19, (3S,5S,8R,9S,10S,13R,14S,15R,17R)-15-cyclopropyl-3-ethyl-17-((R)-6-hydroxy-6-methylheptan-2-yl)-10,13-dimethylhexadecahydro-1H-cyclopenta[a]phenanthren-3-ol] | 100 to 200% | 100 to 500 nM |  | 
CC[C@]1(O)CC[C@@]2(C)C(=CC[C@H]3[C@@H]4[C@@H]5C[C@@H]5[C@H]([C@H](C)CCCC(C)(C)O)[C@@]4(C)CC[C@@H]32)C1 [Compound B-20, (2S,4aR,4bS,6aR,7S,7aS,8aR,8bS,8cR)-2-ethyl-7-((R)-6-hydroxy-6-methylheptan-2-yl)-4a,6a-dimethyl-1,2,3,4,4a,4b,5,6,6a,7,7a,8,8a,8b,8c,9-hexadecahydrocyclopropa[4,5]cyclopenta[1,2-a]phenanthren-2-ol] | 100 to 200% | 1 to 100 nM |  | 
CC[C@]1(O)CC[C@@]2(C)C(=CC[C@H]3[C@@H]4[C@H](C)C[C@H]([C@H](C)CCCC(C)(C)O)[C@@]4(C)CC[C@@H]32)C1 [Compound B-21, (3S,8R,9S,10R,13R,14S,15R,17R)-3-ethyl-17-((R)-6-hydroxy-6-methylheptan-2-yl)-10,13,15-trimethyl-2,3,4,7,8,9,10,11,12,13,14,15,16,17-tetradecahydro-1H-cyclopenta[a]phenanthren-3-ol] |  | 1 to 100 nM |  | 
CC[C@]1(O)CC[C@@]2(C)[C@@H](CC[C@@H]3[C@@H]2CC[C@]2(C)[C@@H]([C@H](C)CCCC(C)(C)O)[C@H](C)C[C@@H]32)C1 [Compound B-22, (3S,5S,8R,9S,10S,13S,14S,16R,17S)-3-ethyl-17-((R)-6-hydroxy-6-methylheptan-2-yl)-10,13,16-trimethylhexadecahydro-1H-cyclopenta[a]phenanthren-3-ol] | > 200% | 100 to 500 nM |  | 
CC[C@]1(O)CC[C@@]2(C)[C@@H](CC[C@@H]3[C@@H]2CC[C@]2(C)[C@@H]([C@H](C)CC[C@H](O)C(C)C)[C@H](C)C[C@@H]32)C1 [Compound B-23, (3S,5S,8R,9S,10S,13S,14S,16R,17S)-3-ethyl-17-((2R,5S)-5-hydroxy-6-methylheptan-2-yl)-10,13,16-trimethylhexadecahydro-1H-cyclopenta[a]phenanthren-3-ol] | > 200% | 1 to 100 nM |  | 
CC[C@]1(O)CC[C@@]2(C)[C@@H](CC[C@@H]3[C@@H]2CC[C@]2(C)[C@@H]([C@H](C)CC[C@@H](O)C(C)C)[C@H](C)C[C@@H]32)C1 [Compound B-24, (3S,5S,8R,9S,10S,13S,14S,16R,17S)-3-ethyl-17-((2R,5R)-5-hydroxy-6-methylheptan-2-yl)-10,13,16-trimethylhexadecahydro-1H-cyclopenta[a]phenanthren-3-ol] | > 200% | 100 to 500 nM |  | 
CC[C@]1(O)CC[C@@]2(C)[C@@H](CC[C@@H]3[C@@H]2CC[C@]2(C)[C@@H]([C@H](C)CC[C@@H](O)C(C)(C)C#N)CC[C@@H]32)C1 [Compound C-1, (3R,6R)-6-((3S,5S,8R,9S,10S,13R,14S,17R)-3-ethyl-3-hydroxy-10,13-dimethylhexadecahydro-1H-cyclopenta[a]phenanthren-17-yl)-3-hydroxy-2,2-dimethylheptanenitrile] |  |  | > 200% | 1 to 100 nM
CC[C@]1(O)CC[C@@]2(C)[C@@H](CC[C@@H]3[C@@H]2CC[C@]2(C)[C@@H]([C@H](C)CC[C@H](O)C(C)(C)C#N)CC[C@@H]32)C1 [Compound C-2, (3S,6R)-6-((3S,5S,8R,9S,10S,13R,14S,17R)-3-ethyl-3-hydroxy-10,13-dimethylhexadecahydro-1H-cyclopenta[a]phenanthren-17-yl)-3-hydroxy-2,2-dimethylheptanenitrile] |  |  | 100 to 200% | 1 to 100 nM
CC[C@]1(O)CC[C@@]2(C)[C@@H](CC[C@@H]3[C@@H]2CC[C@]2(C)[C@@H]([C@H](C)CC[C@@H](O)C4(C#N)CC4)CC[C@@H]32)C1 [Compound C-3, 1-((1R,4R)-4-((3S,5S,8R,9S,10S,13R,14S,17R)-3-ethyl-3-hydroxy-10,13-dimethylhexadecahydro-1H-cyclopenta[a]phenanthren-17-yl)-1-hydroxypentyl)cyclopropanecarbonitrile] |  |  | > 200% | 1 to 100 nM
CC[C@]1(O)CC[C@@]2(C)[C@@H](CC[C@@H]3[C@@H]2CC[C@]2(C)[C@@H]([C@H](C)CC[C@H](O)C4(C#N)CC4)CC[C@@H]32)C1 [Compound C-4, 1-((1S,4R)-4-((3S,5S,8R,9S,10S,13R,14S,17R)-3-ethyl-3-hydroxy-10,13-dimethylhexadecahydro-1H-cyclopenta[a]phenanthren-17-yl)-1-hydroxypentyl)cyclopropanecarbonitrile] |  |  | < 100% | 100 to 500 nM
CC[C@H](C#N)[C@H](O)CC[C@@H](C)[C@H]1CC[C@H]2[C@@H]3CC[C@H]4C[C@](O)(CC)CC[C@]4(C)[C@H]3CC[C@]12C [Compound C-5, (2R,3R,6R)-2-ethyl-6-((3S,5S,8R,9S,10S,13R,14S,17R)-3-ethyl-3-hydroxy-10,13-dimethylhexadecahydro-1H-cyclopenta[a]phenanthren-17-yl)-3-hydroxyheptanenitrile] |  |  | > 200% | 1 to 100 nM
CC[C@H](C#N)[C@@H](O)CC[C@@H](C)[C@H]1CC[C@H]2[C@@H]3CC[C@H]4C[C@](O)(CC)CC[C@]4(C)[C@H]3CC[C@]12C [Compound C-6, (2R,3S,6R)-2-ethyl-6-((3S,5S,8R,9S,10S,13R,14S,17R)-3-ethyl-3-hydroxy-10,13-dimethylhexadecahydro-1H-cyclopenta[a]phenanthren-17-yl)-3-hydroxyheptanenitrile] |  |  | 100 to 200% | 100 to 500 nM
CC[C@@H](C#N)[C@H](O)CC[C@@H](C)[C@H]1CC[C@H]2[C@@H]3CC[C@H]4C[C@](O)(CC)CC[C@]4(C)[C@H]3CC[C@]12C [Compound C-7, (2S,3R,6R)-2-ethyl-6-((3S,5S,8R,9S,10S,13R,14S,17R)-3-ethyl-3-hydroxy-10,13-dimethylhexadecahydro-1H-cyclopenta[a]phenanthren-17-yl)-3-hydroxyheptanenitrile] |  |  | > 200% | 1 to 100 nM
CC[C@@H](C#N)[C@@H](O)CC[C@@H](C)[C@H]1CC[C@H]2[C@@H]3CC[C@H]4C[C@](O)(CC)CC[C@]4(C)[C@H]3CC[C@]12C [Compound C-8, (25,3S,6R)-2-ethyl-6-((3S,5S,8R,9S,10S,13R,14S,17R)-3-ethyl-3-hydroxy-10,13-dimethylhexadecahydro-1H-cyclopenta[a]phenanthren-17-yl)-3-hydroxyheptanenitrile] |  |  | < 100% | 1 to 100 nM
COC[C@]1(O)CC[C@@]2(C)[C@@H](CC[C@@H]3[C@@H]2CC[C@]2(C)[C@@H]([C@H](C)CC[C@@H](O)C(C)(C)C#N)CC[C@@H]32)C1 [Compound C-9, (3R,6R)-3-hydroxy-6-((3S,5S,8R,9S,10S,13R,14S,17R)-3-hydroxy-3-(methoxymethyl)-10,13-dimethylhexadecahydro-1H-cyclopenta[a]phenanthren-17-yl)-2,2-dimethylheptanenitrile] |  |  | < 100% | 1 to 100 nM
CC[C@]1(O)CC[C@@]2(C)[C@@H](CC[C@@H]3[C@@H]2CC[C@]2(C)[C@@H]([C@H](C)CC[C@H](O)CC#N)CC[C@@H]32)C1 [Compound C-10, (3S,6R)-6-((3S,5S,8R,9S,10S,13R,14S,17R)-3-ethyl-3-hydroxy-10,13-dimethylhexadecahydro-1H-cyclopenta[a]phenanthren-17-yl)-3-hydroxyheptanenitrile] |  |  | < 100% | 100 to 500 nM
